What was measured:
U2OS cells = test: Calcium ionophore A23187-induced loss of mitochondrial membrane potential (TMRM dye release); type: cell-based; conditions: TMRM dye
Source text: FIG. 22A, FIG. 22B, FIG. 22C, FIG. 22D, FIG. 22E and FIG. 22F: Example 45 Compound Preserves Mitochondrial Membrane Potential in Parallel to Proneurogenic Activity U2OS cells were loaded with tetramethylrhodamine methyl ester (TMRM) dye and then exposed to the calcium ionophore A23187 either in the presence or absence of test compounds. Example 45 Compound (FIG. 22A) preserved mitochondrial membrane potential following exposure to the calcium ionophore A23187 in a dose-dependent manner. The protective effect of P7C3 was enantiomeric specific. […] Each compound was evaluated in triplicate with similar results.
Extensive evidence pioneered by the laboratory of Xiaodong Wang has shown that an intrinsic pathway leading to programmed cell death emanates from mitochondria (Liu et al., Cell 1996, 86, 147-157; Yang et al., Science 1997, 275, 1129-1132). With the help of the Wang lab, assays were established to test whether Example 45 Compound might protect mitochondria from calcium-induced dissolution (Distelmaier et al., Cytometry A 2008, 73, 129-138). Tetramethylrhodamine methyl ester (TMRM) is a cell-permeant, cationic red-orange fluorescent dye that is readily sequestered by active mitochondria. When loaded with TMRM dye, vehicle-only treated cells released the dye within 15 minutes of exposure to the calcium ionophore A23187. By contrast, dye release was prevented in cells exposed to as little as […] of Example 45 Compound (FIG. 18A).
Since P7C3 ameliorates the death of newborn neurons in the dentate gyrus in living mice, it is possible that its function might relate to mitochondrial integrity. Assays were established to test whether P7C3 might protect cultured U2OS cells from calcium-induced mitochondrial dissolution (Distelmaier et al., Cytometry A 2008, 73, 129-138). Tetramethylrhodamine methylester (TMRM) dye is sequestered by active mitochondria, and, when loaded with TMRM, vehicle-treated cells released the dye within 15 rain of exposure to the calcium ionophor A23 187.

[1] = system: neural precursor cells in the subgranular zone of the dentate gyrus; test: In vivo pro-neurogenic efficacy/neuroprotection assay: intracerebroventricular infusion, BrdU incorporation in the dentate gyrus; parameters: species or system mouse (C57/Bl6); conditions: direct administration into the brain via Alzet minipumps for one week, 10 μM unless stated
Protocol: Compounds were evaluated for pro-neurogenic efficacy/neuroprotection in our standard in vivo assay at 10 μM concentration in four 12 week old adult male C57/Bl6 mice.
In an effort to identify compounds that might stimulate the birth of new neurons, or protect newborn neurons from cell death, a library of 1,000 compounds was screened using an in vivo assay. In the initial screen, compounds were randomly pooled into groups often and administered intracerebroventricularly at a constant rate over seven days into the left lateral ventricle of living mice via Alzet osmotic mini-pumps. Compounds were administered at a concentration of 10 μM for each molecule, making a total solute concentration of 100 μM. After seven days of infusion at a constant rate of 0.5 μL/hour, a total of 84 μL of volume will have left the pump (0.00084 μMoles) and entered the cerebrospinal fluid. The average volume of a brain from a 12 week old male, C57/B6 mouse in our study is 500 mm^3. […] Under these conditions, at the end of one week of infusion each compound would be present at 1.7 μMolar concentration. Since the actual amount of chemical compound in the brain is likely to be only a fraction of this predicted level, it is reasonable to estimate that compounds were administered at mid to low-nanomolar concentrations.
During compound infusion, animals were intraperitoneally (IP) injected daily with the thymidine analog, bromodeoxyuridine (BrdU), as a means of scoring the birth and survival of proliferating neural precursor cells in the hippocampus. Because both social interaction and voluntary exercise are known to stimulate hippocampal neurogenesis, mice were housed individually without access to running wheels throughout the screening period. Following the week-long period of compound administration, animals were perfused and sacrificed. Dissected brain tissue was fixed, embedded, sectioned, stained with antibodies to BrdU, and evaluated by light microcopy as a means of quantifying neurogenesis and survival of newborn neural precursor cells localized to the subgranular layer of the dentate gyrus on the brain hemisphere contralateral to the side of mini-pump cannulation. Every fifth section throughout the entire rostral-caudal extent of the hippocampus was analyzed, and the total number of BrdU+ cells was normalized against the measured volume of the dentate gyrus. Because both increased proliferation and survival of newborn neurons are important screening parameters, the screen was conducted over seven days in order to cast a wide net to detect molecules that might augment either process. […] Intracranial infusions of either fibroblast growth factor 2 (FGF-2) or artificial cerebral spinal fluid (aCSF) vehicle via the same, week-long protocol were employed as positive and negative controls. There was no difference in the number of BrdU-labeled cells in the dentate gyrus between mice subjected to surgical pump implantation and infusion with vehicle, and mice having had no surgery (FIG. 2). This confirmed the validity of the in vivo approach to assess the ability of intracerebroventricularly infused compounds to enhance hippocampal neurogenesis in the contralateral hemisphere.
In order to further study Example 45 Compound, an in vivo structure activity relationship (SAR) study was conducted using 37 chemical derivatives of the compound for pro-neurogenic activity via direct administration into the brain of adult mice via Alzet minipumps. Compounds were administered for one week at 10 uM into 4 mice per compound, along with daily IP injections of BrdU. Following compound administration, animals were perfused, sacrificed and subjected to sectioning, staining and light microscopy in order to monitor hippocampal neurogenesis localized to the subgranular layer of the dentate gyrus. Roughly 10% of the variant compounds retained pro-neurogenic activity indistinguishable from the parent compound. […]

[2] = system: cultured primary cortical neurons; test: Mitochondrial membrane potential (TMRM) after A23187 in cultured primary cortical neurons; type: cell-based; conditions: rat E14 cortical neurons
Source text: (§1) FIG. 23: Example 45 Compound Preserves Mitochondrial Membrane Potential in Cultured Primary Cortical Neurons. Cortical neurons cultures from rats on embryonic day 14 were loaded with tetramethylrhodamine methyl ester (TMRM) dye after 6 days of maturation. […] The remaining panels are from cells that were exposed to the calcium ionophore A23187 at time zero. With vehicle-alone, cortical neuron mitochondrial membrane potential was rapidly lost after exposure to the ionophore. […] Results shown are representative of 10 fields analyzed in each of 2 experimental runs for all conditions.
as §1, with “It was also examined whether” for “FIG. 23:”, “preserves mitochondrial membrane potential” for “Preserves Mitochondrial Membrane Potential”, “cultured primary cortical neurons (FIG. 23).” for “Cultured Primary Cortical Neurons.”

Solubility = type: physicochemical
[3] = system: neural precursor cells in the subgranular zone of the dentate gyrus; conditions: dosed intracranially as a 10 micromolar solution; MacMillan et al., J Am. Chem. Soc. 2011; cited from earlier work
[4] = system: hippocampal neurogenesis in the DG; test: Comparison of P7C3 compounds and antidepressant drugs: DG BrdU labeling after i.c.v. infusion; type: in vivo, mouse; conditions: 10 μM i.c.v. for 7 days
Source text: The neuroprotective efficacies of both P7C3 and P7C3-A20 were next compared to currently marketed antidepressant medications, using screening conditions identical to those by which P7C3 was originally discovered. This experiment was based on the antidepressant actions of P7C3 and P7C3-A20 characterized here, and the dependence on hippocampal neurogenesis for behavioral efficacy of some marketed antidepressant medications in mice.
Proneurogenic efficacies in the DG of P7C3 and P7C3A20 were compared to those of vehicle (artificial cerebrospinal fluid) and several marketed antidepressant compounds (Sigma-Aldrich, St. Louis, Mo.) according to established methods. In brief, mice were housed individually in cages without running wheels or any form of environmental enrichment, in order to create an environment predicted to have as low of a baseline level of hippocampal neurogenesis as possible. Compounds (10 μM, i.c.v.) were administered for 7 days via subcutaneously implanted Alzet osmotic minipumps connected to a cannula directed into the left lateral ventricle, with implantation day designated as day 0. Starting on day 1, mice also received daily injections of BrdU (50 mg/kg, i.p.) at 9 am daily, for 6 days. Twenty four hours after the sixth BrdU injection, mice were transcardially perfused as described above.

| Structure (SMILES) | preservation of mitochondrial membrane potential (U2OS cells) | increase of DG neurogenesis (BrdU labeling) over vehicle [4] | other results |
| --- | --- | --- | --- |
| COc1cccc(NCC(O)Cn2c3ccc(Br)cc3c3cc(Br)ccc32)c1 (single isomer, unassigned) [Example 1b, 1-(3,6-Dibromo-9H-carbazol-9-yl)-3-(3-methoxyphenylamino)-propan-2-ol] | Preservation of mitochondrial membrane potential in this assay was observed | – | – |
| COc1cccc(NCC(O)Cn2c3ccc(Br)cc3c3cc(Br)ccc32)c1 (single isomer, unassigned; (+)) [(+) enantiomer of Example 62 Compound, 1-(3,6-Dibromo-9H-carbazol-9-yl)-3-(3-methoxyphenylamino)-propan-2-ol] | observed only with the (+) enantiomer | – | pro-neurogenic activity in the in vivo hippocampal neurogenesis assay [1]: fully retained; pro-neurogenic activity in the in vivo hippocampal neurogenesis assay ([1]; listed as (+)-enantiomer of Example 62 Compound): retained potent pro-neurogenic activity |
| OC(CCNc1ccccc1)Cn1c2ccc(Br)cc2c2cc(Br)ccc21 (centres unmarked) [Example 21, 1-(3,6-dibromo-9H-carbazol-9-yl)-4-(phenylamino)butan-2-ol] | displayed less protective effect | – | – |
| Cc1cc(C)n(CC(O)Cn2c3ccc(Br)cc3c3cc(Br)ccc32)n1 (centres unmarked) [Example 33, 1-(3,6-dibromo-9H-carbazol-9-yl)-3-(3,5-dimethyl-1H-pyrazol-1-yl)propan-2-ol] | displayed less protective effect | – | preservation of mitochondrial membrane potential [2]: less effective in preserving mitochondrial membrane potential at any dose tested |
| OC(CNc1ccccc1)Cn1c2ccccc2c2ccccc21 (centres unmarked) [Example 76, 1-(9H-carbazol-9-yl)-3-(phenylamino)propan-2-ol] | – | – | pro-neurogenic activity in the in vivo hippocampal neurogenesis assay [1]: found to be active; solubility (Solubility): low solubility; pro-neurogenic activity of a commercial sample in the neurogenesis assay [3]: indistinguishable from vehicle |
| Fc1ccc([C@@H]2CCNC[C@H]2COc2ccc3c(c2)OCO3)cc1 [paroxetine] | – | did not affect the magnitude of neurogenesis | – |
| NNCCc1ccccc1 [phenelzine] | – | ~52% | – |
| CN[C@H]1CC[C@@H](c2ccc(Cl)c(Cl)c2)c2ccccc21 [sertraline] | – | did not affect the magnitude of neurogenesis | – |
| COc1ccc(C(CN(C)C)C2(O)CCCCC2)cc1 (centres unmarked) [venlafaxine] | – | did not affect the magnitude of neurogenesis | – |

From US10183011B2, “Anti-depression compounds” (Board of Regents of the University of Texas System, priority 2009, dated 2019)
